The values below are quoted from earlier work in patent US12115245B2 (Xiamen University, priority 2019, dated 2024).

Structures are written as SMILES. Where a SMILES comes first, the peptide text is derived from it.

For the molecule `C[C@H](N)C(=O)N[C@@H](CCC(N)=O)C(=O)O` [Ala-Gln, L-alanyl-L-glutamine] (H-Ala-Gln-OH), the “solubility in water / aqueous solutions” value is “very soluble in water”. As for `NC(=O)CC[C@H](N)C(=O)O` [Gln, Glutamine], the “solubility in water / aqueous solutions” value was “low solubility in aqueous solutions”.
